One block for each compound: values may come before it.
Legend:
[1] = cited from earlier work
[2] = Drug dissolution test of extruded granules or pellets, paddles at 100 rpm, demineralized water, room temperature; assay type: physicochemical; details: paddles 100 rpm
Description: The extruded granules were collected, sieved and further analysed for drug dissolution (data shown in FIGS. 1 and 2, formulations B and D). The dissolution test was performed at room temperature by using paddles rotating at 100 rpm, the dissolution medium being demineralized water.

[3] = capsules with granulate formulation, surfactants, cyclodextrin, Avicel PH 101 and Primojel (U.S. Pat. No. 5,646,131, example 4); cited from earlier work
[4] = in vivo; cited from earlier work

Compound: Cn1c(=O)c2[nH]cnc2n(C)c1=O [theophylline]
water-solubility [1]: 8000 µg/mL

drug release after 30 minutes [2]: 38%
Compound: COc1cc(Cc2cnc(N)nc2N)cc(OC)c1OC [trimethoprim, 2,4-diamino-5-(3,4,5-trimethoxy-benzyl)pyrimidine]

Compound: CC/C(=C(/CC)c1ccc(O)cc1)c1ccc(O)cc1 [diethylstilbestrol]
solubility in water (in words) [1]: virtually insoluble in water

Compound: CC(C)(C)c1ccc(C(O)CCCN2CCC(C(O)(c3ccccc3)c3ccccc3)CC2)cc1 (stereo not drawn) [terfenadine]
water-solubility [1]: less than 0.01 mg/ml
drug release within 45 minutes [3]: 90%

Compound: CS(=O)(=O)c1ccc([C@@H](O)[C@@H](CF)NC(=O)C(Cl)Cl)cc1 [florfenicol, D-(threo)-1-p-methylsulfonyl phenyl-2-dichloroacetamido-3-fluoro-l-propanol]
oral bioavailability [4]: good oral bioavailability
